# Measured values published in PMC6627609, “Targeting Quorum Sensing: High-Throughput Screening to Identify Novel LsrK Inhibitors” (International Journal of Molecular Sciences, 2019).
# Counter-ions that a name gives are not always drawn.
# Biological target: LsrK (Salmonella typhimurium, UniProt Q8ZKQ6)
# Assay: biochemical
# Format: biochemical, S. typhimurium
# Details: not given
# Chain of LsrK (Q8ZKQ6 whole entry): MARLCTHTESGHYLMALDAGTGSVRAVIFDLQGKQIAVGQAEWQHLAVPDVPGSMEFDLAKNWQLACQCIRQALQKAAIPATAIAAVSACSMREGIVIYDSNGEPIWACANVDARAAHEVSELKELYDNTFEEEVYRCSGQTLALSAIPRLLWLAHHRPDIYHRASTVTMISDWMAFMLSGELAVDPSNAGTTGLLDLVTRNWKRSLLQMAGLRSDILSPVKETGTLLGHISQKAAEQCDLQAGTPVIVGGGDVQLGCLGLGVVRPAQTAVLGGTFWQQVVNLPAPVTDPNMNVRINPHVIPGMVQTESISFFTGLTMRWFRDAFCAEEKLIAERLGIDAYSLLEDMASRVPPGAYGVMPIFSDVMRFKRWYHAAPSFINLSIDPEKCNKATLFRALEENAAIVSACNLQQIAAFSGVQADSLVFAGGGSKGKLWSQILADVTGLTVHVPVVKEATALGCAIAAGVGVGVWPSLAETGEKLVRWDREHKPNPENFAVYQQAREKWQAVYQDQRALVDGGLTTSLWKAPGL
row,SMILES,inhibition at 50 µM [%]
1,C[C@@H]1[C@H](O)[C@@H](C)/C=C/C=C/C=C/C=C/C=C/C=C/C=C/[C@H](O[C@@H]2O[C@H](C)[C@@H](O)[C@H](N)[C@@H]2O)C[C@@H]2O[C@](O)(C[C@@H](O)C[C@@H](O)[C@H](O)CC[C@@H](O)C[C@@H](O)CC(=O)O[C@H]1C)C[C@H](O)[C@H]2C(=O)O [AMPHOTERICIN B],61
2,CC1(C)S[C@@H]2[C@H](NC(=O)[C@H](N)c3ccccc3)C(=O)N2[C@H]1C(=O)O [AMPICILLIN SODIUM],1
3,COc1cc(NS(C)(=O)=O)ccc1Nc1c2ccccc2nc2ccccc12 [AMSACRINE],1
4,CN1CCCCC1c1ccc(-c2cccnc2)nc1 (stereo not shown) [ANABASAMINE HYDROCHLORIDE],2
5,c1cncc([C@@H]2CCCCN2)c1 [ANABASINE HYDROCHLORIDE],2
6,N=c1ccn2c(n1)O[C@H]1[C@H](O)[C@@H](CO)O[C@H]12 [ANCITABINE HYDROCHLORIDE],2
7,C[C@]12CC[C@@H](O)C[C@@H]1CC[C@@H]1[C@@H]2CC[C@]2(C)C(=O)CC[C@@H]12 [ANDROSTERONE],1
8,COc1ccc([C@@H](C)C(=O)c2ccc(O)cc2O)cc1 [ANGOLENSIN (R)],1
9,COc1ccc2c(=O)c(CC(=O)O)coc2c1 [ANHYD[…]],3
10,c1ccc(CN(CC2=NCCN2)c2ccccc2)cc1 [ANTAZOLINE PHOSPHATE],1
11,O=C1c2c(O)cccc2Cc2cccc(O)c21 [ANTHRALIN],8
12,O=C1c2ccccc2C(=O)c2ccccc21 [ANTHRAQUINONE],0
13,COc1cc(O)cc(OC)c1OC [ANTIAROL],21
14,O=c1cc(-c2ccc(O)cc2)oc2cc(O[C@@H]3O[C@H](CO)[C@@H](O)[C@H](O)[C@H]3O[C@@H]3OC[C@](O)(CO)[C@H]3O)cc(O)c12 [APIIN],1
15,OC[C@H]1O[C@@H](Oc2ccc(O)cc2)[C@H](O)[C@@H](O)[C@@H]1O [ARBUTIN],2
16,C[C@H]1[C@@H](O)O[C@@H]2O[C@@]3(C)CC[C@H]4[C@H](C)CC[C@@H]1[C@@]24OO3 [ARTENIMOL],0
17,CCCCCCCCCCCCCCCC(=O)OC[C@H](O)[C@H]1OC(=O)C(O)=C1O [ASCORBYL PALMITATE],28
18,C[C@H]1[C@H](C)CC[C@]2(C(=O)O)CC[C@]3(C)C(=CC[C@@H]4[C@@]5(C)C[C@@H](O)[C@H](O)[C@@](C)(CO)[C@@H]5CC[C@]43C)[C@H]12 [ASIATIC ACID],2
19,CC(=O)Oc1ccccc1C(=O)O [ASPIRIN],0
20,CC1=C(/C=C/C(C)=C/C=C/C(C)=C/C=C/C=C(C)/C=C/C=C(C)/C=C/C2=C(C)C(=O)[C@@H](O)CC2(C)C)C(C)(C)C[C@H](O)C1=O [ASTAXANTHIN],1
21,O=C1C(O)=C([C@H]2CC[C@H](c3ccc(Cl)cc3)CC2)C(=O)c2ccccc21 [ATOVAQUONE],1
22,COC(=O)c1c(C)cc(OC(=O)c2c(C)cc(O)c(C=O)c2O)c(C)c1O [ATRANORIN],0
23,CN1[C@@H]2CC[C@H]1C[C@@H](OC(=O)C(CO)c1ccccc1)C2 (stereo partly shown) [ATROPINE SULFATE],3

row,SMILES,inhibition at 50 µM [%]
1,C#CCCCCCCCCCCCC(O)CC(O)COC(C)=O (stereo not shown) [AVOCADYNE ACETATE],1
2,Nc1ncn([C@@H]2O[C@H](CO)[C@@H](O)[C@H]2O)c(=O)n1 [AZACITIDINE],9
3,O=C(CCCN1CCN(c2ccccn2)CC1)c1ccc(F)cc1 [AZAPERONE],25
4,[N-]=[N+]=CC(=O)OC[C@H](N)C(=O)O [AZASERINE],3
5,O=C(O)CCCCCCCC(=O)O [AZELAIC ACID],3
6,CN1CCCC(n2nc(Cc3ccc(Cl)cc3)c3ccccc3c2=O)CC1 (stereo not shown) [AZELASTINE HYDROCHLORIDE],1
7,CC1(C)S[C@@H]2[C@H](NC(=O)[C@H](NC(=O)N3CCNC3=O)c3ccccc3)C(=O)N2[C@H]1C(=O)O [AZLOCILLIN SODIUM],0
8,c1ccc(/N=N/c2ccccc2)cc1 [AZOBENZENE],1
9,C[C@H]1[C@H](NC(=O)/C(=N\OC(C)(C)C(=O)O)c2csc(N)n2)C(=O)N1S(=O)(=O)O [AZTREONAM],1
10,CCOC(=O)OC(C)OC(=O)[C@@H]1N2C(=O)[C@@H](NC(=O)[C@H](N)c3ccccc3)[C@H]2SC1(C)C (stereo partly shown) [BACAMPICILLIN HYDROCHLORIDE],5
11,CC(=O)O[C@H]1C(=O)[C@@]2(C)[C@H]([C@H](OC(=O)c3ccccc3)[C@]3(O)C[C@H](O)C(C)=C1C3(C)C)[C@]1(OC(C)=O)CO[C@@H]1C[C@@H]2O [BACCATIN III],9
12,O=c1cc(-c2ccccc2)oc2cc(O)c(O)c(O)c12 [BAICALEIN],2
13,CCC1(CC)C(=O)NC(=O)NC1=O [BARBITAL],1
14,CCOC(=O)[C@H](CCc1ccccc1)N[C@H]1CCc2ccccc2N(CC(=O)O)C1=O [BENAZEPRIL HYDROCHLORIDE],0
15,NS(=O)(=O)c1cc2c(cc1C(F)(F)F)NC(Cc1ccccc1)NS2(=O)=O (stereo not shown) [BENDROFLUMETHIAZIDE],0
16,CC(Cc1cccc(C(F)(F)F)c1)NCCOC(=O)c1ccccc1 (stereo not shown) [BENFLUOREX HYDROCHLORIDE],4
17,C/C(=C(\CCOP(=O)(O)O)SC(=O)c1ccccc1)N(C=O)Cc1cnc(C)nc1N [BENFOTIAMINE],0
18,NC(CO)C(=O)NNCc1ccc(O)c(O)c1O (stereo not shown) [BENSERAZIDE HYDROCHLORIDE],97
19,CCc1oc2ccccc2c1C(=O)c1cc(Br)c(O)c(Br)c1 [BENZBROMARONE],106
20,O=C(O)c1ccccc1 [BENZOIC ACID],3
21,O=C(Oc1cccc2cccnc12)c1ccccc1 [BENZOXIQUINE],0
22,O=C(OOC(=O)c1ccccc1)c1ccccc1 [BENZOYL PEROXIDE],11
23,S=C=NCc1ccccc1 [BENZYL ISOTHIOCYANATE],2

row,SMILES,inhibition at 50 µM [%]
1,CC(C)COCC(CN(Cc1ccccc1)c1ccccc1)N1CCCC1 (stereo not shown) [BEPRIDIL HYDROCHLORIDE],18
2,COc1ccc2cc3[n+](cc2c1OC)CCc1cc2c(cc1-3)OCO2 [BERBERINE CHLORIDE],1
3,COc1c(O)cc2c(c1O)[C@@H]1O[C@H](CO)[C@@H](O)[C@H](O)[C@H]1OC2=O [BERGENIN],0
4,C[C@H]1C[C@H]2[C@@H]3CCC4=CC(=O)C=C[C@]4(C)[C@@]3(F)[C@@H](O)C[C@]2(C)[C@@]1(O)C(=O)CO [BETAMETHASONE],1
5,O=C(O)CCNC(=O)c1ccccc1 [BETAMIPRON],0
6,C=C(C)[C@@H]1CC[C@]2(CO)CC[C@]3(C)[C@H](CC[C@@H]4[C@@]5(C)CC[C@H](O)C(C)(C)[C@@H]5CC[C@]43C)[C@@H]12 [BETULIN],4
7,CC(C)(Oc1ccc(CCNC(=O)c2ccc(Cl)cc2)cc1)C(=O)O [BEZAFIBRATE],2
8,OC(CCN1CCCCC1)(c1ccccc1)C1CC2C=CC1C2 (stereo not shown) [BIPERIDEN],1
9,CCc1ccc2c(O)c3c(cc2c1C(=O)OC)C(=O)c1c(O)ccc(O)c1C3=O [BISANHYDRORUTILANTINONE],2
10,CC(C)NCC(O)COc1ccc(COCCOC(C)C)cc1 (stereo not shown) [BISOPROLOL FUMARATE],0
11,COC(=O)/C=C/C(C)=C\C=C\C(C)=C\C=C\C=C(C)\C=C\C=C(C)\C=C\C(=O)O [BIXIN],79
12,"O=C(O)CC[N+](=O)[O-] [BOVINOCIDIN (3-nitropropionic acid), 3-nitropropionic acid]",5
13,O=C1C=C2CC3(O)COc4cc(O)ccc4C3=C2C=C1O (stereo not shown) [BRAZILEIN],66
14,Oc1ccc2c(c1)OC[C@]1(O)Cc3cc(O)c(O)cc3[C@H]21 [BRAZILIN],133
15,CC1(C)CC2C1CC[C@]1(CBr)CCC3C(CC(=O)O)C(=O)O[C@@]32C1 (stereo partly shown) [BROMO-3-HYDROXY-4-(SUCCIN-2-YL)-CARYOLANE gamma-LACTONE],1
16,O=C(CCCN1CCC(O)(c2ccc(Br)cc2)CC1)c1ccc(F)cc1 [BROMPERIDOL],1
17,CN(C)CCC(c1ccc(Br)cc1)c1ccccn1 (stereo not shown) [BROMPHENIRAMINE MALEATE],1
18,COc1cc2c(cc1OC)[C@@]13CCN4CC5=CCO[C@H]6CC(=O)N2[C@H]1[C@H]6[C@H]5C[C@H]43 [BRUCINE],2
19,CCOc1ccc(NC(=O)CC(C)O)cc1 (stereo not shown) [BUCETIN],0
20,CCCC1O[C@@H]2C[C@H]3[C@@H]4CCC5=CC(=O)C=C[C@]5(C)[C@H]4[C@@H](O)C[C@]3(C)[C@]2(C(=O)CO)O1 (stereo partly shown) [BUDESONIDE],2
21,CCCCNc1cc(C(=O)O)cc(S(N)(=O)=O)c1Oc1ccccc1 [BUMETANIDE],1

# Same assay, conditions: 50 µM
row,SMILES,Inhibition (%)
1,C=CCc1cc(OC)c2c(c1OC)OCO2 [APIOLE],1
2,COc1cc2c(cc1OC)-c1c(oc3cc(O)cc(O)c3c1=O)CO2 [APOTOXICAROL],1
3,OCC(O)C(O)C(O)CO (stereo not shown) [ARABITOL(D)],0
4,Cl.N=C(N)NCCC[C@H](N)C(=O)O [ARGININE HYDROCHLORIDE],1
5,OC[C@H]1O[C@H]([S-])[C@H](O)[C@@H](O)[C@@H]1O.[Au+] [AUROTHIOGLUCOSE],104
6,C=CCCCCCCCCCCCc1ccco1 [AVOCADENOFURAN],2
7,O=C(CNC(=O)c1ccc(Cl)cc1)NO [BENURESTAT],3
8,C[N+](C)(CCOc1ccccc1)Cc1ccccc1.O=C([O-])c1cc2ccccc2cc1O [BEPHENIUM HYDROXYNAPTHOATE],1
9,O=C1CCO1 [BETA-PROPIOLACTONE],0
10,CCC(=O)OCC(=O)[C@@]1(OC(=O)CC)[C@@H](C)C[C@H]2[C@@H]3CCC4=CC(=O)C=C[C@]4(C)[C@@]3(F)[C@@H](O)C[C@@]21C [BETAMETHASONE 17.21-DIPROPIONATE],0
11,COc1ccc(-c2coc3cc(O)cc(O)c3c2=O)cc1 [BIOCHANIN A],25
12,COc1cc(OC)c(C(=O)CCCN2CCCC2)c(OC)c1.Cl [BUFLOMEDIL HYDROCHLORIDE],1
